Results: patent US12364678B2, “Pharmaceutical composition comprising palmitoylethanolamide and L- Acetylcarnitine” (EPITECH GROUP S.P.A., priority 2014, dated 2025)

Tests used:
[1] = system: sciatic nerve ligation; test: Mechanical allodynia after sciatic nerve ligation (neuropathic pain model), Dynamic Plantar Aesthesiometer; assay type: in vivo, mice of the C57BL/6J strain; settings: alone
Method: The experiments were carried out by using male mice of the C57BL/6J strain with a weight ranging between 25 and 30 g; 10 animals per group were used. The animals were anesthetized with sodium pentobarbital (60 mg/kg, i.p.) and subjected to a surgical procedure of sciatic nerve ligation capable of inducing neuropathic pain in accordance with the method described by Bennet and Xie (1988, Pain; 33:87-107). Sham animals were used as a control. The products were administered p.o. with a tube, suspended in 2% CarboxymethylCellulose. The mechanical allodynia was measured by using the Dynamic Plantar Aesthesiometer equipment of the Company Ugo Basile-Varese, Italy. The values in the table are referred to the weight, expressed in grams, to which the animal object of the experiment, subjected thereto, withdraws its paw when feeling pain.

[2] = system: carrageenan; test: Carrageenan (CAR) test, paw edema volume by plethysmometer; assay type: in vivo, Wistar male rats; settings: for effect on the formation of the edema by carrageenan (paw volume): 5 mg/kg orally, alone, 30 minutes to 6 hours after carrageenan (FIG. 2a); for reduction of the volume of the legs after CAR: all time points (FIG. 3a)
Method: The carrageenan (CAR) test was performed according to a protocol that provides intra-plantar injection of carrageenan in rats and administration of the active ingredient orally by gavage. This is a standard inflammation test. The 1% (weight/volume) carrageenan solution (Sigma) was prepared in sterile saline and subsequently kept at 37° C. for 1 hour to obtain complete solubilization. The paw edema was induced in Wistar male rats by injecting 200 μl of carrageenan into the plantar aponeurosis of the right hind paw. The increase in size of the treated paw was measured prior to induction and 30 minutes after injection of the inflammatory agent using a plethysmometer (model 7140; Ugo Basile). The subsequent paw size measurements were taken at 60-minute intervals with respect to the first measurement, for a total of 7 measurements. The difference between the values obtained from the treated animals and the control animals was calculated and assessed statistically for all six hours.

[3] = system: carrageenan; test: Carrageenan (CAR) test, hyperalgesic response, paw withdrawal latency (Plantar Test); assay type: in vivo, Wistar male rats; settings: for lengthening of the retraction time compared to the control: 5 mg/kg, individually administered (FIG. 2b); for increase of latency time after CAR: all time points (FIG. 3b)
Method: The carrageenan (CAR) test was performed according to a protocol that provides intra-plantar injection of carrageenan in rats and administration of the active ingredient orally by gavage. This is a standard inflammation test. The 1% (weight/volume) carrageenan solution (Sigma) was prepared in sterile saline and subsequently kept at 37° C. for 1 hour to obtain complete solubilization. The paw edema was induced in Wistar male rats by injecting 200 μl of carrageenan into the plantar aponeurosis of the right hind paw. Hyperalgesic response to heat was measured at various time points (0, 30 min, 1, 2, 3, 4, 5 and 6 h) in accordance with the method described by Hargreaves et al. (Pain, 32 (1988), 77-88) using the Plantar Test 7371 (Ugo Basile, Italy). In short, the animals were allowed to move freely in an open transparent plastic chamber. After a period of acclimatization, a heat source radiating infrared light (IR 60) was placed under the glass floor and concentrated on the hind paw. When the animal felt pain and withdrew its paw, the source was turned off and the time measured was recorded.

[4] = system: sciatic nerve ligation; settings: 100 mg/kg; cited from earlier work
[5] = system: sciatic nerve ligation; settings: 10 mg/kg; cited from earlier work

CC(=O)O[C@H](CC(=O)[O-])C[N+](C)(C)C [LAC, L-Acetylcarnitine]
alleviation of the neuropathic pain (mechanical allodynia) ([1]; 10 mg/kg p.o.): do not cause a significant activity
alleviation of the neuropathic pain (mechanical allodynia) ([1]; 100 mg/kg p.o.): significant alleviation
effect on the formation of the edema by carrageenan (paw volume) [2]: does not have a significant effect
reduction of the volume of the legs after CAR ([2]; LAC 3.0 mg/kg oral): did not achieve a significant reduction
reduction of the volume of the legs after CAR ([2]; LAC 5.0 mg/kg oral): did not achieve a significant reduction
lengthening of the retraction time compared to the control [3]: do not show any effect
increase of latency time after CAR ([3]; LAC 3.0 mg/kg oral): did not achieve a significant increase
increase of latency time after CAR ([3]; LAC 5.0 mg/kg oral): did not achieve a significant increase
mechanical allodynia [4]: decrease the mechanical allodynia

CCCCCCCCCCCCCCCC(=O)NCCO [PEA-m, palmitoylethanolamide]
effect on the formation of the edema by carrageenan (paw volume) [2]: does not have a significant effect
lengthening of the retraction time compared to the control [3]: do not show any effect

CCCCCCCCCCCCCCCC(=O)NCCO [PEA-um, palmitoylethanolamide]
alleviation of the neuropathic pain (mechanical allodynia) ([1]; 5 mg/kg p.o.): do not cause a significant activity
alleviation of the neuropathic pain (mechanical allodynia) ([1]; 10 mg/kg p.o.): significant alleviation

CCCCCCCCCCCCCCCC(=O)NCCO [palmitoylethanolamide]
effect in the neuropathic pain model [5]: particularly relevant effect
